Target: Endothelin-1 receptor (Homo sapiens) (UniProt P25101)
Assay: Displacement of [125I]ET-1 from Endothelin A receptor

Chain of Endothelin-1 receptor (Homo sapiens) (P25101 whole entry, looked up): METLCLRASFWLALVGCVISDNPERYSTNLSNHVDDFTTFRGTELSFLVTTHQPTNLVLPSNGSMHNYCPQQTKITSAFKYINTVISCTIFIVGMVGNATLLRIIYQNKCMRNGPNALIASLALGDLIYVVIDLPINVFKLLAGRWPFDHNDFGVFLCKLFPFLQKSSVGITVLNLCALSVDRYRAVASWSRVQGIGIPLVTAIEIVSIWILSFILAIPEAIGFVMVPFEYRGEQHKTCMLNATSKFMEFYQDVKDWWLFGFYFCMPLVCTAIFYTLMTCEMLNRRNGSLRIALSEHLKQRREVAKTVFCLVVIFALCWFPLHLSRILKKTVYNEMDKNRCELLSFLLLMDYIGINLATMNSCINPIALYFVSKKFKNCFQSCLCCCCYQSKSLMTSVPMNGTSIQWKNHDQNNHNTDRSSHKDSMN

Cc1cc(C)c(NC(=O)c2sccc2S(=O)(=O)Nc2onc(C)c2Cl)c(C(C)N=O)c1 (stereo unspecified) [3-(4-Chloro-3-methyl-isoxazol-5-ylsulfamoyl)-thiophene-2-carboxylic acid [2-(1-hydroxyimino-ethyl)-4,6-dimethyl-phenyl]-amide] showed an IC50 of 0.02 nM.
